Test results from paper PMC4156305, “Structure Driven Design of Novel Human Ether-A-Go-Go-Related-Gene Channel (hERG1) Activators” (PLoS ONE, 2014).

Target: T1, hERG1 (Homo sapiens, UniProt Q12809)
T1 construct: expressed in transfected cells; host or cells: HEK 293
Assay: Whole cell patch-clamp of hERG1 currents in transfected HEK 293 cells
Format: cell-based
Parameters: Inactivation ΔV0.3: unit not given here
Details: for Deactivation Δλ/λcon: deactivation time constant relative to baseline; for Activation V1/2 (mV): shift in voltage-dependence of activation; for Inactivation ΔV0.3: shift in voltage-dependence of inactivation; for Amplitude I/Icon: tail current relative to baseline
Procedure: Transfected HEK cells on glass cover slips were placed in a chamber mounted on a modified stage of an inverted microscope. The chamber was superfused at a rate of 2 mL/min with a normal external solution. The extracellular solution contained (in mM) NaCl 140, KCl 5.4, CaCl2 1, MgCl2 1, HEPES 5, glucose 5.5, pH 7.4, with NaOH. Micropipettes were pulled from borosilicate glass capillary tubes on a programmable horizontal puller (Sutter Instruments, Novato, CA). Standard patch-clamp methods were used to measure the whole cell currents of hERG1 mutants expressed in HEK 293 cells using the AXOPATCH 200B amplifier (Axon Instruments). Unless otherwise indicated, tail currents were recorded when the voltage was returned to −50 mV from +50 mV. Further details on electrophysiological methods are collected in Methods S1.
Electrophysiology Protocol:
The pipette solution contained the following (at mM concentration): KCl 10, K-aspartate 110, MgCl2 5, Na2ATP 5, EGTA 10, HEPES 5, and CaCl2 1. The solution was adjusted to pH 7.2 with KOH. The extracellular solution contained the following (at mM concentration): NaCl 140, KCl 5.4, CaCl2 1, MgCl2 1, HEPES 5, and glucose 5.5. The solution was adjusted to pH 7.4 with NaOH. For IKr measurements, the whole cell configuration of the patch clamp method was used. The series resistance was less than 7
MΩ. The data were sampled at 1 kHz. The holding potential was -80 mV. The activation of hERG tail currents was induced by depolarization to a range of potentials from +50 to -100 mV in 10 mV steps for 1 second. This was followed by repolarization to -100 mV for 1 second to record the tail currents.
-100 mV, a -120 mV 1 second pre-pulse was applied to completely close the hERG channels before subsequent depolarization. All of the tail currents reported in this manuscript represent dofetilide-sensitive currents. The inactivation of hERG was measured by a previously reported triple-pulse protocol5, 6. The holding potential was -80 mV. The hERG channel was first depolarized to +50 mV for 1 second. Recovery from inactivation was achieved using a short pulse (a 10 ms hyperpolarization) to -120 mV, followed by the application of test pulses from -100 to 0 mV for 1 second in 10 mV steps.
A voltage of -100 mV was selected because it was on the flat part of the inactivation-voltage relationship. The methods employed are identical to ones previously reported. […]

T1 sequence (Q12809 whole entry): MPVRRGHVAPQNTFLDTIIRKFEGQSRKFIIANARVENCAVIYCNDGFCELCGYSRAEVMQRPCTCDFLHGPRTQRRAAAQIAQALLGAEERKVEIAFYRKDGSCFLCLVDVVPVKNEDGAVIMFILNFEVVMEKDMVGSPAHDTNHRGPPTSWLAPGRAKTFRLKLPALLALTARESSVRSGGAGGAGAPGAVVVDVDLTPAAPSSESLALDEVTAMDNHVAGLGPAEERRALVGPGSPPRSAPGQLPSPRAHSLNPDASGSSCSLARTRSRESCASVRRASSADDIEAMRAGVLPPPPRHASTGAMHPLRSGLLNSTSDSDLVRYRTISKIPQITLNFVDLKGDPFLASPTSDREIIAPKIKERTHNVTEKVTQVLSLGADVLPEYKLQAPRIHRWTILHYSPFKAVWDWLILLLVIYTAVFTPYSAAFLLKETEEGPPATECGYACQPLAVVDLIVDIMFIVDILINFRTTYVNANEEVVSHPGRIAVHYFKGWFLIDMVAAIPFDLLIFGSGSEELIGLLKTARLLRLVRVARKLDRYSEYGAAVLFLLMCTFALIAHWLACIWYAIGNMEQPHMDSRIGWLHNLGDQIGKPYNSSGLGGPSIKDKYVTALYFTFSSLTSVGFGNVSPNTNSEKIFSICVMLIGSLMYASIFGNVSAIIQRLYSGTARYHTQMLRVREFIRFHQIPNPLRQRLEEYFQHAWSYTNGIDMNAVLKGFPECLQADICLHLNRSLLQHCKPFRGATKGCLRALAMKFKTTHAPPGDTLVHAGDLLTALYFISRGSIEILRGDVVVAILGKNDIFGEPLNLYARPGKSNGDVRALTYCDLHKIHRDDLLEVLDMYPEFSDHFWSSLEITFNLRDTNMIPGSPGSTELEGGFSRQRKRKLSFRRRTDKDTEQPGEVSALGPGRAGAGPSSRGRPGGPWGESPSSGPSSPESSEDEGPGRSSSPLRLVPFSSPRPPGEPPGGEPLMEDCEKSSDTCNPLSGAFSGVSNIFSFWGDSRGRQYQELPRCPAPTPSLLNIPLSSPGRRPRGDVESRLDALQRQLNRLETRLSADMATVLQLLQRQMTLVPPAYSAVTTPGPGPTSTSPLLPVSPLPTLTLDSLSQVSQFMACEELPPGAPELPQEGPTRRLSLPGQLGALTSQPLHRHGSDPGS

Row | Compound | Deactivation Δλ/λcon (Conc. 20 µM) | Activation V1/2 (mV) (Conc. 20 µM) | Inactivation ΔV0.3 (Conc. 20 µM) | Amplitude I/Icon (Conc. 20 µM) | Deactivation Δλ/λcon (Conc. 50 µM) | Activation V1/2 (mV) (Conc. 50 µM) | Inactivation ΔV0.3 (Conc. 50 µM) | Amplitude I/Icon (Conc. 50 µM) | also measured
1 | COCOc1ccc(C(F)(F)F)cc1NC(=O)NC(=O)[C@H](C)NCc1ccc(Br)cc1 [Compound 9] | −0.1±0.1 | −9.1±2.1 | −3.5±1.5 | 0.5±0.1 |  |  |  |  | 
2 | CN(C(=O)c1cc(C(F)(F)F)ccc1Cl)c1ccccc1 [Compound 19] |  |  |  |  | −0.2±0.08 | 1±3 | −2±1 | 0.7±0.06 | Activation V1/2 (mV) (Conc. 5 µM): 0 mV; Amplitude I/Icon (Conc. 5 µM): 0.9±0.1
3 | CN(C(=O)c1cccc(C(F)(F)F)c1)c1ccccc1 [Compound 18] |  |  |  |  | −0.2±0.05 | 3.3±0.3 | −11.7±7.3 | 0.8±0.07 | 
4 | C[C@H](NS(=O)(=O)c1ccc([N+](=O)[O-])cc1)C(=O)NC(=O)Nc1cc(C(F)(F)F)ccc1O [Compound 14] |  |  |  |  | 0.6±0.3 | −7.7±3.0 | 2.5±3.5 | 0.39±0.04 | Deactivation Δλ/λcon (Conc. 2 µM): 0.4±; Activation V1/2 (mV) (Conc. 2 µM): −3±0.02 mV; Amplitude I/Icon (Conc. 2 µM): 0.93±0.01; Amplitude I/Icon (Conc. 50 µM, listed as MC-I-169b): significantly more pharmacologic block
5 | COCOc1ccc(C(F)(F)F)cc1N [Compound 20] |  |  |  |  |  |  |  |  | Deactivation Δλ/λcon (Conc. 5 µM): 0.03±0.01; Activation V1/2 (mV) (Conc. 5 µM): −2.5±0.5 mV; Inactivation ΔV0.3 (Conc. 5 µM): 0±1; Deactivation Δλ/λcon (Conc. 100 µM): −0.06±0.2; Activation V1/2 (mV) (Conc. 100 µM): −3.3±1.3 mV; Inactivation ΔV0.3 (Conc. 100 µM): −1±0; Amplitude I/Icon (Conc. 100 µM): 0.9±0.04
6 | COCOc1ccc(C(F)(F)F)cc1NC(=O)NC(=O)[C@H](C)NC(=O)c1ccc([N+](=O)[O-])cc1 [Compound 12] | −0.1±0.1 | −6.3±2.7 | −7.3±1.9 | 0.6±0.19 |  |  |  |  | 
7 | COCOc1ccc(C(F)(F)F)cc1NC(N)=O [Compound 21] |  |  |  |  | 0.02±0.1 | −1.3±2.4 | 0.7±3.7 | 0.9±0.04 | 
8 | C[C@H](NCc1ccc(F)cc1)C(=O)NC(=O)Nc1cc(C(F)(F)F)ccc1O [Compound 3] | 1.7±0.3 | −17.3±0.3 | −7.5±4.5 | 0.6±0.14 |  |  |  |  | Deactivation Δλ/λcon (Conc. 2 µM): 1.7±0.3; Activation V1/2 (mV) (Conc. 2 µM): −17.3±0.3 mV; Inactivation ΔV0.3 (Conc. 2 µM): −7.5±4.5
9 | O=C1NC(=O)c2cc(C(F)(F)F)ccc21 [Compound 23] |  |  |  |  | 0.2±0.1 | −2.3±1.3 | −2±1.2 | 1.0±0.01 | 
10 | COCOc1ccc(C(F)(F)F)cc1NC(=O)Oc1ccccc1 [Compound 22] |  |  |  |  | −0.2±0.09 | −1.7±2.3 | 0±0 | 0.9±0.04 | 
11 | C[C@H](NCc1ccccc1)C(=O)NC(=O)Nc1cc(C(F)(F)F)ccc1O [Compound 2] | 0.6±0.4 | −14.5±5.5 | −21±0.0 | 0.4±0.02 |  |  |  |  | 
12 | O=C(Nc1ccccc1)C1C(=O)Nc2ccccc21 (centres unmarked) [Compound 24] |  |  |  |  | 0.2±0.2 | −2.3±0.9 | 8±0 | 0.8±0.03 | 
13 | COCOc1ccc(C(F)(F)F)cc1NC(=O)NC(=O)[C@H](C)NCc1ccc(C(F)(F)F)cc1 [Compound 10] | 0.5±0.03 | −13.7±3.2 | −12.3±3.4 | 0.4±0.02 |  |  |  |  | 
14 | C[C@H](NC(=O)c1ccc([N+](=O)[O-])cc1)C(=O)NC(=O)Nc1cc(C(F)(F)F)ccc1O [Compound 7] | 0.6±0.3 | −7±1.1 | −3.5±4.5 | 0.6±0.1 |  |  |  |  | 
